Legend:
PLCγ1^wt [1] = target: T1, PLCγ1^wt (Homo sapiens, UniProt P19174, I813T); experiment: PLC activity assay 1 (A1), XY-69 substrate in liposomes, nucleotide inhibition; type: biochemical; conditions: for IC50: XY-69 in liposomes, mean and SD, nine replicates
T1 construct: specific activities of PLCγ1^wt and PLCγ2^wt full-length proteins; made in house; host or cells: Escherichia coli T7 Express lysY/Iq
T1 sequence (P19174 1-1291 isoform P19174-2 I813T): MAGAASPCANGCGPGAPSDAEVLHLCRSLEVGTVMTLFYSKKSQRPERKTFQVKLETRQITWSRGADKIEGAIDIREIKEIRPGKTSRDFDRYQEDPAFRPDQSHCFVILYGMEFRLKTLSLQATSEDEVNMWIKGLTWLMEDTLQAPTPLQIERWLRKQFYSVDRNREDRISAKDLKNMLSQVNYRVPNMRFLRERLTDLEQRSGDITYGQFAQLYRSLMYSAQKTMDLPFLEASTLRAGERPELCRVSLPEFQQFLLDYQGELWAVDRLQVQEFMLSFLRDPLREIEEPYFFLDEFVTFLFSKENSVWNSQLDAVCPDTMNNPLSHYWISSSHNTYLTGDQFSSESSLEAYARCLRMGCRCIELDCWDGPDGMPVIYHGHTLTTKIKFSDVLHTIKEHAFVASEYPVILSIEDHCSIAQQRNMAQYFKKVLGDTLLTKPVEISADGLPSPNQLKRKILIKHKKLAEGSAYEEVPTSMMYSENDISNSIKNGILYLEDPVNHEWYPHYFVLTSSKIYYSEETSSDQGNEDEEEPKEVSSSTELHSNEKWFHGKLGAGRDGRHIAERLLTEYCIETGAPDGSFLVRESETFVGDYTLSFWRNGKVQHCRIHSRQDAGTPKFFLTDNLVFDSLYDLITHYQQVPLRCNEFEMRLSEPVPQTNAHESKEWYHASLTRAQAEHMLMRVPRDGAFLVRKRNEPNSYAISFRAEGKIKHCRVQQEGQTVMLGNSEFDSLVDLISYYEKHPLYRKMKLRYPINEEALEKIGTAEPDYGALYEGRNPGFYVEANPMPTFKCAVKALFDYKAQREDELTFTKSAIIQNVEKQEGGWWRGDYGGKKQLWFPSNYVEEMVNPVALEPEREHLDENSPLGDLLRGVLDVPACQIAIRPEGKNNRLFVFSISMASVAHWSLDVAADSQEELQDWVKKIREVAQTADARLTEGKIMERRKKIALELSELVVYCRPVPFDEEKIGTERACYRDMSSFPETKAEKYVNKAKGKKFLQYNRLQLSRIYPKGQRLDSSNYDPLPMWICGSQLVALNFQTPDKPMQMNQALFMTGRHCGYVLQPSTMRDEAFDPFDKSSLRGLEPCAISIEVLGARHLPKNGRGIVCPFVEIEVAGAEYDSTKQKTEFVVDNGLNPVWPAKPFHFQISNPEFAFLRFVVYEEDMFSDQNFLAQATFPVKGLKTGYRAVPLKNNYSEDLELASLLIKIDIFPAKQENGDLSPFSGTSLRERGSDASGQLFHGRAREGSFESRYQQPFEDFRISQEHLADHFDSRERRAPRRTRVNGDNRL

PLCγ1^wt [2] = target: T1, PLCγ1^wt; experiment: Microscale thermophoresis (MST) binding; conditions: one-site binding model
Method: Proteins were diluted to 200 nM in MST buffer [50 mM Hepes.KOH, 70 mM KCl, 5% (v/v) glycerol, 0.05% (v/v) Tween-20, 2 mM DTT (pH 7.5)] and subsequently labelled by adding an equal volume of 100 nM 2nd generation RED-Tris-NTA labelling dye and incubating for 30 minutes. […] An equal volume of labelled protein was added to each ligand concentration and the mixture taken up into a standard MST capillary. Samples were measured in a Monolith NT.115 pico instrument (Nanotemper) using the Nano-RED channel. Excitation power was set to 5% and MST power set to high. All experiments were performed at 25°C. All data were analysed using the manufacturer’s MO.Control software and repeated at least three times with representative experiments shown.

PLCβ2 = target: T2, PLCβ2 (Homo sapiens, UniProt Q00722); experiment: PLC activity assay 1 (A1), PLCβ2; type: biochemical; conditions: substrate in solution or in lipid vesicles (Figure 3C, D); except small changes at very high concentration
T2 construct: made in house; host or cells: Escherichia coli T7 Express lysY/Iq
T2 sequence (Q00722 whole entry, species assumed): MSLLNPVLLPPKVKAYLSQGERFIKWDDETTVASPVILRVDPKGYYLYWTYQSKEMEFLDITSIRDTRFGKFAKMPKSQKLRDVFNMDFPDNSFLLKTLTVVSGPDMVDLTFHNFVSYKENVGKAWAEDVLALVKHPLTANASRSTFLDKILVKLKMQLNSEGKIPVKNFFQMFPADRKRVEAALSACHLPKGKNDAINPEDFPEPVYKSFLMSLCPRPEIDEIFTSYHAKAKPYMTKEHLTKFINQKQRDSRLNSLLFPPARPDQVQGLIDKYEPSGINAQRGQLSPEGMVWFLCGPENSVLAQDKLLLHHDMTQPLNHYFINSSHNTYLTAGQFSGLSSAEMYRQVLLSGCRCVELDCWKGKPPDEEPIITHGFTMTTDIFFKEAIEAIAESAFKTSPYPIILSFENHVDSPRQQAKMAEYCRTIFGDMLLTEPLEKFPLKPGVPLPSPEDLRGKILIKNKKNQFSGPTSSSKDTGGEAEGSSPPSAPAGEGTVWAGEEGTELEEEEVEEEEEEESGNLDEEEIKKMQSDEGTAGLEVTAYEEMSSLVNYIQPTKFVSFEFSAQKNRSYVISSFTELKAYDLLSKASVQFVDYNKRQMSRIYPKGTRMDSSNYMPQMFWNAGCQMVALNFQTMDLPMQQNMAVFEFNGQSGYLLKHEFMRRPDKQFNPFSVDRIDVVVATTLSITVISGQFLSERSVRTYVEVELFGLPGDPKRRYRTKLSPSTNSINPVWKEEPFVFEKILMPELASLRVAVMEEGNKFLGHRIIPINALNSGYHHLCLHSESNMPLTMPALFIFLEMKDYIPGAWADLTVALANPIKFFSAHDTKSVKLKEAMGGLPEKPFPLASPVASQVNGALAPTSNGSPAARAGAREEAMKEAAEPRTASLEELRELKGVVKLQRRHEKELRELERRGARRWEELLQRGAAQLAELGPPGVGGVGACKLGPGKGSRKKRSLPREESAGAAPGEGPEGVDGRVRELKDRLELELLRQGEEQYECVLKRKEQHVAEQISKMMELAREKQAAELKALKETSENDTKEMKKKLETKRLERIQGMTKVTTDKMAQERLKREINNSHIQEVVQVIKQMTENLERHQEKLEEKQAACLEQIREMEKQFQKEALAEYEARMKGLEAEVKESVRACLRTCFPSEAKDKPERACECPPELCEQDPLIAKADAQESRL

For `Nc1ncnc2c1ncn2[C@@H]1O[C@H](COP(=O)(O)OP(=O)(O)O)[C@@H](O)[C@H]1O` [ADP], the “IC50 in liposome assay (A1) relative to solution assay (A2), fold lower” value (PLCγ1^wt [1]) was “eight-fold”, the IC50 (PLCγ1^wt [1]) was 1 to 20 µM and the “IC50 of ADP relative to ATP (fold lower)” value (PLCγ1^wt [1]; assays A1 and A2) was 2–4 fold. The Kd (PLCγ1^wt [2]) was 30 to 50 µM and the “effect on PLC activity of PLCβ2” value (PLCβ2) was “not affected”.
With `Nc1ncnc2c1ncn2[C@@H]1O[C@H](COP(=O)(O)OP(=O)(O)OP(=O)(O)O)[C@@H](O)[C@H]1O` [ATP] the IC50 (PLCγ1^wt [1]) was 1 to 20 µM, the Kd (PLCγ1^wt [2]) was 30 to 50 µM and the “effect on PLC activity of PLCβ2” value (PLCβ2) was “not affected”.

Reference: paper PMC12687421, “Characterisation of an allosteric site in PLCγ enzymes and implications for development of their specific inhibitors” (Biochemical Journal, 2025)
